From US10583210B2, “Auger electron therapy for glioblastoma” (Syddansk Universitet, priority 2014, dated 2020)
Entries after “also recorded” stand apart in the source; their conditions may differ.

Columns and labels:
T87 glioblastoma cells = test: CellTiter Blue viability assay, T87 cells; format: cell-based, human
Procedure: (§1) Cells were cultured as free-floating spheroids in the absence of serum at 36° C. in a humidified incubator with 5% CO2. Two GSCs passage 9-12, designated […], were utilized. They were established, as previously described in our laboratory in 2009 ([…]) and 2010 ([…]), in accordance with the Regional Scientific Ethical Committee (approval number S-VF-20040102). They have; the ability to form new spheroids at clonal density, a karyotype typical of GBMs, the ability to differentiate into cells expressing neuronal, astrocytic and oligodendrocyte markers upon culturering in serum-containing medium and the ability to form highly invasive tumors upon orthotopic xenografting (exemplified for the […] GCS in Supplementary FIG. 1). […] The cells were then incubated in serum-free medium or serum-free medium containing either the non-radioactive, but chemically identical ^[…]-UdR (0.3 μg/ml, Sigma-Aldrich), or increasing activities of ^125I-UdR (0-3 kBq/ml). At day 7, 20 μl of CellTiter Blue (Promega) was added and the cells were returned to the incubator for 6 hours prior to recording of the fluorescence in a Victor3 Multilabel Plate Reader (PerkinElmer Life Sciences).

T87 GBM cells = test: 125I-UdR incorporation after MTX/F-UdR exposure, T87 (gammacounter); format: cell-based, human; settings: for 125I-UdR incorporation compared to non-treated control cells: 1 hour pre-treatment with 1 μM, 16 h later 100 Bq/mL 125I-UdR for 72 h
Procedure: A) 1 hour pre-treatment of T87 GBM cells in vitro with 1 μM MTX or F-UdR before ^125I-UdR exposure increased the ^125I incorporation in the cells. […] The incorporation rate was determined by a gammacounter. […] F-UdR was effective in concentrations ≥1 nM while MTX was effective at ≥10 nM. At a F-UdR concentration of 10 μM, the 125I-incorporation declined presumably do to toxic effects from the F-UdR. […] Opposed to the T87 cell line, the T86 cell line is also known to have an unmethylated MGMT promoter region, thereby being less responsive to TMZ chemotherapy.

[1] = system: TE-671 human rhabdomyosarcoma cells; settings: IT bolus of 125I-UdR, IT infusion of MTX; cited from earlier work
[2] = system: orthotopic xenografted GBM (evolved from the T87 GSC); test: Therapeutic study in orthotopic xenografted GBM-bearing nude rats (PET, survival, histology)
Procedure: All animal procedures were conducted in accordance with the obtained approval from the national Animal Experiments Inspectorate (permission J. Nr. 2008/561-1572). Male athymic nude rats (n=24) aged six weeks (Hsd:RH-Foxnl mu, Harlan laboratories) were anaesthetized subcutaneously (mixture of Hypnorm and Midazolam) and placed in a small animal stereotaxic instrument (Model 900, David Kopf Instruments). Through a midline scalp incision, the bregma was exposed, and one mm anteriorly and two mm laterally to this a burr hole was made. A blunt cannula (Hamilton 7102 syringe) was then advanced to a depth of 3.5 mm (right striatum), and a 2 μl cell suspension of 300,000 T87 single cells in Hank's Balanced Salt Solution (Gibco) supplemented with 0.9% glucose (SAD 500 mg/ml) was slowly injected. After removal of the cannula, the skin was closed with VICRYL 5.0 (Ethicon) disrupted sutures. Two weeks after tumor-cell inoculation, a SMP-200 iPRECIO® Micro Infusion Pump (Data Sciences International) was implanted subcutaneously, since preliminary experiments had shown establishment of tumors at this time point. Infusion protocols (instant mode, constant flow mode and 5 μl/hour infusion rate) were downloaded, and the pumps were conditioned according to Low Flow Infusion Standard Operational Procedure. Rats were anaesthetized and fixated as described above. The midline incision was re-incised and the burr hole was identified. A 4 mm pump connector cannula (PlasticsOne model 328OPM/PK/Spc) was then connected to the pump catheter and implanted (according to the manufactures Technical Note 6) with the tip of the cannula in the center of the bulk tumor. Pumps were loaded with isotone saline (n=8, group I) or 0.1 mM MTX (Sigma-Aldrich) (n=16, group II and III). Finally, the skin was closed with VICRYL 5.0 disrupted sutures. As one of the rats with an MTX loaded pump never woke up after surgery it was censored from the study. Two days later the 23 rats were anaesthetized using isoflurane, and residual saline or MTX was extracted from the pump reservoirs according to the manufacturer's instructions. The reservoirs were refilled with 960 μl of 0.3 μg/m ^127I-UdR (n=8, group I) or twice with the ^125I-UdR activity (n=15, group II and III), enabling 8 days of continuous infusion and a cumulated infused ^125I-UdR activity of 83±7 MBq.
Rats were fed ad libitum and to block the thyroid gland, KI (Sigma-Aldrich) was added to the drinking water (1 mg/ml) from the day of pump implantation and the following 14 days. At the end of the observation period (180 days after completion of treatment) or once animals reached the pre-determined humane endpoints (neurological deficits or >20% weight-loss) they were anaesthetized by isoflurane and euthanized by intravenous pentobarbital injection.
For tumor response evaluation, the animals were PET scanned biweekly in the initial phase and later every third week using the Inveon PET scanner. […] After the tracer injection pairs of animals were placed head-to-head in the scanner and at 40 min. post injection a 14 min. static scan was performed. The acquired data were reconstructed using the ordered subset expectation maximization in two dimensions algorithm without scatter and attenuation correction in the Inveon Acquisition Workplace software module (Siemens).
Brain, thyroid gland, liver and kidneys were removed post-mortem and fixed in 4% formaldehyde. After fixation, brains were divided in one mm thick coronal sections using a rat brain matrix (PlaticsOne) followed by paraffin embedment. […] Three μm sections were cut and all sections were stained with HE for morphological evaluation.

[3] = Intracerebral distribution by SPECT/CT; format: in vivo, athymic nude rats; settings: constant intratumoral CED for 8 days, last day of infusion
Procedure: The intracranial distribution of infused ^125I-UdR was measured at the last day of infusion using a Siemens Inveon Small Animal PET/SPECT/CT scanner. The animals were anesthetized using isoflurane and subsequently SPECT scanned for approximately 42 min using 1.8 mm pinhole collimators (3×1.8 RWB collimators) with 30 projections in 180 degrees rotation. […] In one of the animals a low-dose CT scan was performed in combination with the SPECT scan to visualize the surrounding cranium.

T78 spheroids = test: 2D spheroid migration assay, T78; format: cell-based, human; settings: 3 kBq/ml 125I-UdR, from day three, vs 127I-UdR treated spheroids
Procedure: (§2) Geltrex (Gibco) and serum-free medium was mixed (1+49) and 1.4 ml was added to each well in 12-well plates. Coated plates were incubated over night at 36° C. and the following morning the supernatant was aspirated. Then, one spheroid (100-200 μm) was aspirated into a 0.1-2.0 μl pipette and meticulously embedded in the coating. After incubating the plate for 75 minutes at 36° C., 800 μl serum-free medium was added. When spheroids started migrating (designated day 0) additionally 200 μl of serum-free medium (serving as untreated controls), ^127I-UdR or ^125I-UdR was added resulting in a final concentration of 0.3 μg/ml or 3 kBq/ml of ^127I-UdR or ^125I-UdR, respectively. Images were obtained daily from day 0 to day 5 using a Leica DM IRB inverted phase-contrast microscope, a Leica DFC300FX camera, and the Leica Application Suite version 2.6.0 RI computer software. The radius of the spheroids was determined (http://imagej.nih.gov/ij/) and the migration speed/day was calculated.

T87 spheroids = test: 2D spheroid migration assay, T87; format: cell-based, human; settings: for spheroid migration: 3 kBq/ml 125I-UdR or 0.3 μg/ml 127I-UdR, day 0-5, effect from day three
Procedure: as §2

C6 glioma = settings: local implant, 7.4 MBq 125I-UdR, passive diffusion; cited from earlier work
[4] = system: T78 glioblastoma (GBM) cells; test: CellTiter Blue viability assay, T78 cells; format: cell-based, human
Procedure: as §1

[5] = Adverse effect evaluation (blood samples, post-mortem histology); format: in vivo, athymic nude rats
[6] = co-incubation with 18.5 KBq/mL 125I-UdR for 4 hours

With `O=c1[nH]c(=O)n([C@H]2C[C@H](O)[C@@H](CO)O2)cc1F` [F-UdR, 5-Fluoro-2′-deoxyuridine] the “killing effect compared with MTX” value (T87 glioblastoma cells; T87, 7 days exposure) was “stronger killing effect”, the “125I-UdR incorporation compared to non-treated control cells” value (T87 GBM cells) was “significantly increase” and the “concentration effective in increasing 125I incorporation” value (T87 GBM cells; [6]) was ≥ 1 nM. For the same compound, the “125I-incorporation at 10 μM” value (T87 GBM cells; co-incubation with 18.5 KBq/mL 125I-UdR for 4 hours, presumably toxic effects) was “declined”.
For `CN(Cc1cnc2nc(N)nc(N)c2n1)c1ccc(C(=O)N[C@@H](CCC(=O)O)C(=O)O)cc1` [MTX, methotrexate], the “125I-UdR incorporation compared to non-treated control cells” value (T87 GBM cells) is given as “significantly increase”, the “concentration effective in increasing 125I incorporation” value (T87 GBM cells; [6]) is given as ≥ 10 nM and the “median time to onset of paralysis” value [1] is given as “no significant effect”.
In the case of `Cn1nnc2c(C(N)=O)ncn2c1=O` [TMZ, temozolomide], the “maximum survival extrapolated for TMZ monotherapy” value ([2]; extrapolating the U87MG data to the present findings) is reported as 66 days and the median survival ([2]; orthotopic GBM rat model, KM-survival plot FIG. 14) is reported as 47 days.
With `O=c1[nH]c(=O)n([C@H]2C[C@H](O)[C@@H](CO)O2)cc1[125I]` [^125I-UdR, 5-[^125I]iodo-2′-deoxyuridine] the “125I in the tumor region by SPECT/CT” value [3] was “high concentration”, the spheroid migration (T78 spheroids) was “significantly reduced” and the “IC50 (cell viability)” value (T87 glioblastoma cells; T87, 7 days exposure, non-linear regression, range printed 99-120 Bq/mL) was 109 Bq/mL. For the same compound, the “cell survival compared to untreated controls” value (T87 glioblastoma cells; T87, day 7, most activity concentrations (0-3 kBq/ml), p<0.0001) was “significantly decreased”, the “activity concentrations with highly significant effect compared to 127I-UdR” value (T87 glioblastoma cells; T87, p<0.0001) was ≥ 100 Bq/ml and the spheroid migration (T87 spheroids) was “significantly reduced; also recorded: clearly inhibited”. The “spheroid expansion in size” value (T87 spheroids; vs untreated or 127I-UdR exposed spheroids) was “not able to expand in size”, the “animals surviving the entire observation period of 180 days” value (C6 glioma) was 20% and the median survival (C6 glioma) was 35 days. For the same compound, the “cell survival compared to untreated controls” value ([4]; T78, day 7, most activity concentrations (0-3 kBq/ml), p<0.0001) was “significantly decreased” and the “activity concentrations with highly significant effect compared to 127I-UdR” value ([4]; T78, p<0.0001) was ≥ 100 Bq/ml.
For `O=c1[nH]c(=O)n([C@H]2C[C@H](O)[C@@H](CO)O2)cc1I` [^127I-UdR, 5-iodo-2′-deoxyuridine], the spheroid migration (T87 spheroids) is given as “unaffected”, the “animals surviving the entire observation period of 180 days” value (C6 glioma) is given as “No ^127I-UdR treated animal survived the entire observation period” and the median survival (C6 glioma) is given as 20 days. For the same compound, the “animals developing a PET-detectable tumor / tumor progression by [11C]MeAIB PET” value ([2]; 180 days observation period) was “rapidly progressed”, the “animals surviving the entire observation period” value ([2]; 180 days, surviving/total animals) was 0/8 and the “time from therapy initiation to the first PET-based tumor detection” value ([2]; [11C]MeAIB PET) was 21 days. The “post-mortem histology of the brains” value ([2]; anti-human vimentin staining) was “very large tumors”, the “longest survival after initiation of treatment” value ([2]; death due to massive tumor burden) was ≤ 23 days and the “animals with dark neurons in the hippocampus (CA3 region)” value ([5]; HE stained brain sections) was 4/8. The “animals with dark neurons in the neocortex” value ([5]; HE stained brain sections) was 7/8, the thyroid gland histology ([5]; HE stained sections) was “normofollicular architecture” and the “liver histology (hepatocyte necrosis, haemorrhage, inflammation)” value ([5]; PAS-diastase staining) was “no signs of hepatocyte necrosis, haemorrhage or inflammation”.
